Measurements published in patent US20260157950A1, “Compounds and Cosmetic, Dermocosmetic, Cosmeceutical or Pharmaceutical Compositions for Relaxing Muscles, Including the Skeletal Muscles of the Face, for Anti-Aging Cosmetic Action, for Reducing and/or Smoothing Expression Lines and Wrinkles and/or for Antiperspirant Action, Uses and Methods” (Chemyunion Ltda, priority 2022, published 2026).
Ends that are not written are not given here. * marks the point of attachment. Palmitoyl = CCCCCCCCCCCCCCCC(=O)*

System: nasolabial and glabellar wrinkles
Experiment: Assessment of clinical efficacy: topical facial treatment for 28 days, wrinkle evaluation with Bio3D Structured-light Scanner
Type: in vivo, human
Conditions: Day 28 vs Day 0, topical formulation containing peptide at 500 ppm, 10 volunteers per group
Procedure: Two groups of 10 volunteers underwent 28 days of topical treatment with the peptides SEQ NO ID 1 (Pro-Trp-Lys-Trp) or SEQ NO ID 2 (Pal-Pro-Thr-Lys-Trp) in the facial region. Nasolabial and glabellar lines were evaluated on Day 0 (before) and Day 28 (after 4 weeks of treatment) using Bio3D Structured-light Scanner. For wrinkle evaluation, images of the different areas were taken and processed through specific software. Three parameters (total area, length and depth of wrinkles) were obtained for each of the areas in each of the volunteers.

Substance	Decreased wrinkle intensity (D 28/D 0): Wrinkle area	Decreased wrinkle intensity (D 28/D 0): Wrinkle depth	Decreased wrinkle intensity (D 28/D 0): Wrinkle length
Pal-Pro-Thr-Lys-Trp (Palmitoyl-PTKW) [SEQ NO ID 2, N-palmitoylated peptide]	−7.81%	−6.59%	−11.76%
Pro-Trp-Lys-Trp (PWKW) [SEQ NO ID 1]	−10.92%	−9.23%	−14.97%
